“Also recorded” adds a separate entry of the source. Where no end group is shown, it is not given here. [ ]: non-standard residue; d: D form.
Tests used:
Rat cortical neurons [1] = test: Duration of neuroprotection afforded by TAT-NR2B9c in the face of excitotoxic insults (NMDA-induced cell death, pyknotic nuclei as % of total); format: cell-based; conditions: for significant protection (duration after washout): peptide 10 μM for 1 hr, then washout
Method: Rat cortical neurons, taken from E21 rats, were cultured for 7-9 days in vitro in Neurobasal-A medium+B-27 supplement (both invitrogen), 1 mM glutamine, +50 units/ml penicillin, 50 μg/ml streptomycin. • 1. At varying times prior to compound exposure, neurons were removed from Neurobasal-A based culture medium, and placed into “transfection medium” (TM; Bading et al. (1993), Science 260, 181-186): 10% (Minimum Essential Medium, invitrogen (21090022), containing Earles salt, but no L-glutamine), 90% Salt-Glucose-Glycine (SGG) medium SGG: 114 mM NaCl, 0.219% NaHCO3, 5.292 mM KCl, 1 mM MgCl2, 2 mM CaCl2, 10 mM HEPES, 1 mM Glycine, 30 mM Glucose, 0.5 mM sodium pyruvate, 0.1% Phenol Red, insulintransferrin-selenite supplement (Sigma, 7.5 μg insulin/ml; 7.5 μg transferrin/ml and 7.5 ng sodium selenite/ml); final osmolarity 325 mosm/l). All subsequent steps took place in TM. • 2. Neurons were then exposed to inventive fusion peptides at 10 μM for 1 hr. (particularly TAT-NR2B9c peptides in L-form (L-TAT-L-NR2B9c sequence YGRKKRRQRRR-KLSSIESDV (SEQ ID NO: 32), identical to US 20030050243) and their D-form (D-TAT-D-NR2B9c, sequence vdseisslk-rrrqrrkkrgyin (SEQ ID NO: 33))) • 3. After 1 hr neurons were washed once in TM to remove peptide. • 4. After a varying period of time, neurons were exposed to NMDA at either 20 or 40 μM for 1 hr, after which neurons are placed in TM for 24 h. • 5. Neurons were fixed (3% paraformaldehyde) and stained (DAPI, 4′,6-Diamidino-2-phenylindole). Number of pyknotic nuclei as a % of total is counted. Experiments were performed in triplicate.

Rat cortical neurons [2] = test: Duration of neuroprotection afforded by (Arg)8-NR2B9c in the face of excitotoxic insults (NMDA-induced cell death, pyknotic nuclei as % of total); format: cell-based
Method: Rat cortical neurons, taken from E21 rats, were cultured for 7-9 days in vitro in Neurobasal-A medium+B-27 supplement (both Invitrogen), 1 mM glutamine, +50 units/ml penicillin, 50 μg/ml streptomycin • 1. At varying times prior to peptide exposure, neurons were removed from Neurobasal-A based culture medium, and placed into TM (see above) with the inclusion of Insulin-transferrin-selenite supplement (Sigma). All subsequent steps took place in TM (see above). • 2. Neurons were then exposed to inventive fusion peptides at 10 μM for 1 hr. (particularly (Arg)8-NR2B9c peptides in D-form (D-TAT-D-NR2B9c, sequence vdseisslk-rrrrrrrr (SEQ ID NO: 35)) and also L-form (SEQ ID NO: 34)) • 3. After 1 hr neurons were washed once in TM to remove peptide. • 4. After a varying period of time, neurons were exposed to NMDA for 1 hr, after which neurons are placed in TM for 24 h. • 5. Neurons were fixed (3% paraformaldehyde) and stained (DAPI 4′,6-Diamidino-2-phenylindole). The number of pyknotic nuclei as a % of total was counted. Experiments were performed in triplicate.

## YGRKKRRQRRRKLSSIESDV (Description of sequence L-TAT-L-NR2B9c sequence) [comparative compound, identical to US 20030050243, reference compound]
Rat cortical neurons [1]; 40 μM NMDA, FIG. 2
  significant protection (duration after washout): 1 h

## vdseisslk-rrrqrrkkrgy ([dV][dD][dS][dE][dI][dS][dS][dL][dK][dR][dR][dR][dQ][dR][dR][dK][dK][dR]G[dY]-NH2; N-terminus assumed; SMILES CC[C@@H](C)[C@@H](NC(=O)[C@@H](CCC(=O)O)NC(=O)[C@@H](CO)NC(=O)[C@@H](CC(=O)O)NC(=O)[C@H](N)C(C)C)C(=O)N[C@H](CO)C(=O)N[C@H](CO)C(=O)N[C@H](CC(C)C)C(=O)N[C@H](CCCCN)C(=O)N[C@H](CCCNC(=N)N)C(=O)N[C@H](CCCNC(=N)N)C(=O)N[C@H](CCCNC(=N)N)C(=O)N[C@H](CCC(N)=O)C(=O)N[C@H](CCCNC(=N)N)C(=O)N[C@H](CCCNC(=N)N)C(=O)N[C@H](CCCCN)C(=O)N[C@H](CCCCN)C(=O)N[C@H](CCCNC(=N)N)C(=O)NCC(=O)N[C@H](Cc1ccc(O)cc1)C(N)=O) [D-TAT-D-NR2B9c, inventive fusion peptide of D-TAT transporter and D-NR2B9c]
Rat cortical neurons [1]; 20 μM NMDA, FIG. 1
  efficacy (lowered cell death rate %) versus comparative compound L-TAT-L-NR2B9c: at least equal, but predominantly significantly increased efficacy
  gap between peptide incubation and NMDA addition at which the positive effect shows: ≥ 8 h
Rat cortical neurons [1]; 40 μM NMDA, FIG. 2
  efficacy (lowered cell death rate %) versus comparative compound L-TAT-L-NR2B9c: at least equal, but predominantly significantly increased efficacy
  time window in which the remarkable positive effect becomes apparent: less than 24 h
  significant protection (duration after washout): up to 24 hours

## vdseisslk-rrrrrrrr ([dV][dD][dS][dE][dI][dS][dS][dL][dK][dR][dR][dR][dR][dR][dR][dR][dR]) [D-(Arg)8-D-NR2B9c, inventive fusion peptide of D-(Arg)8 transporter and D-NR2B9c]
Rat cortical neurons [2]; 20 μM NMDA, FIG. 3
  efficacy (lowered cell death rate %) versus comparative compound L-(Arg)8-L-NR2B9c: at least equal, but predominantly significantly increased efficacy
Rat cortical neurons [2]; 20 μM NMDA, peptide 10 μM for 1 hr, then washout, FIG. 3
  superior neuroprotection after washout of the peptide (duration): up to 8 hours
Rat cortical neurons [2]; 40 μM NMDA, up to the 8 hr time point, FIG. 4
  efficacy (lowered cell death rate %) versus comparative compound L-(Arg)8-L-NR2B9c: at least equal, but predominantly significant increased efficacies; also recorded: equal to better protective effects
Rat cortical neurons [2]; overall, 20 and 40 μM NMDA
  performance compared with D-TAT-D-NR2B9c: performs similar to D-TAT-D-NR2B9c (SEQ ID NO: 33)), albeit with a shorter duration of neuroprotective activity

Reference: patent US20090281036A1, “FUSION PEPTIDE FOR INHIBITING INTERACTION OF NEURONAL NMDA RECEPTOR (NMDAR) AND NMDAR INTERACTING PROTEINS” (priority 2006, published 2009)
